Assay results: patent US9340577B2, “HLA binding motifs and peptides and their uses” (priority 1992, dated 2016)
Where two headings read alike, the source gives them in different places. No end group written: not given here.

Tests used:
Test in all cases: biochemical
[1] = molecular target: DRB3*0101 (Homo sapiens, UniProt P01903+P79483); format: binding
[2] = molecular target: DRB1*0301 (Homo sapiens, UniProt P01903+P01911, A100K/A102G/A103R/A169T/F55Y/I96L/K41T/L162R/M171V/P40S/Q125H/Q178H/Q39Y/R42S/S66N/T106N/T262R/W38E/Y61H); format: binding
[3] = molecular target: DRB1*1201 (Homo sapiens, UniProt P01903+P01911, A100R/A169T/D57E/D86V/F55L/H45Y/K41T/L162R/M171V/P40S/Q125H/Q178H/Q39Y/Q99D/R42G/S66L/T262R/V114A/V67L/W38E/Y59H/Y61H/Y89S); format: binding
[4] = molecular target: DRB1*1302 (Homo sapiens, UniProt P01903+P01911, A100E/A169T/K41T/L162R/M171V/P40S/Q125H/Q178H/Q39Y/Q99D/R42S/S66N/T262R/V115G/W38E/Y61H); format: binding
[5] = molecular target: DRB5*0101 (Homo sapiens, UniProt P01903+Q30154)
[6] = molecular target: DRB4*0101 (Homo sapiens, UniProt P01903+P13762, G164S); format: binding
[7] = molecular target: DRB1*0802 (Homo sapiens, UniProt P01903+P01911, A100R/A103L/A169T/F76Y/H45Y/I96F/K41T/L162R/M171V/P40S/Q125H/Q178H/Q39Y/Q99D/R218S/R42G/S66Y/V115G/W38E); format: binding
[8] = molecular target: DRB1*1101 (Homo sapiens, UniProt P01903+P01911, A100R/A169T/A87E/I96F/K41T/L162R/M171V/P40S/Q125H/Q178H/Q39Y/Q99D/R42S/S66Y/T262R/V115G/W38E)
[9] = molecular target: DR7 (DRB1*0701) (Homo sapiens, UniProt P01903+P01911, A100R/A102G/A103Q/D57E/D86V/E43K/F76Y/K127E/L162R/M171V/P40G/Q125H/Q99D/R33Q/R42Y/R54Q/S133A/S66F/T210M/V115G/Y107V/Y59L/Y89S); format: binding
[10] = molecular target: DRB1*0405 (Homo sapiens, UniProt P01903+P01911, A100R/A169T/D86S/F76Y/I96L/K127E/L162R/M171V/N62H/P40V/Q125Y/R42H/S133A/S149N/S66Y/V115G/V209L/W38E); format: binding
[11] = molecular target: DRB1*0901 (Homo sapiens, UniProt P01903+P01911, A100R/A103E/D57H/D86V/F55Y/F60I/F76Y/I96F/K127E/L162R/M171V/P40D/Q125H/Q99R/R33Q/R42F/S133A/S66N/T210M/V115G/W38K/Y107V/Y59G/Y89S); format: binding
[12] = molecular target: DR1 (DRB1*0101) (Homo sapiens, UniProt P01903+P01911, A100R/D57E/F55L/F60I/F76Y/I96L/L162R/M171V/P40L/Q125E/R42F/V115G/Y59C); format: binding
[13] = molecular target: DRB1*1501 (Homo sapiens, UniProt P01903+P01911); format: binding
[14] = molecular target: DR4w4 (DRB1*0401) (Homo sapiens, UniProt P01903+P01911, A100K/A169T/F76Y/I96L/K127E/L162R/M171V/N62H/P40V/Q125Y/R42H/S133A/S149N/S66Y/V115G/V209L/W38E); format: binding

DRB1*1302, sequence (P01903 26-254 limits assumed, other chains not shown): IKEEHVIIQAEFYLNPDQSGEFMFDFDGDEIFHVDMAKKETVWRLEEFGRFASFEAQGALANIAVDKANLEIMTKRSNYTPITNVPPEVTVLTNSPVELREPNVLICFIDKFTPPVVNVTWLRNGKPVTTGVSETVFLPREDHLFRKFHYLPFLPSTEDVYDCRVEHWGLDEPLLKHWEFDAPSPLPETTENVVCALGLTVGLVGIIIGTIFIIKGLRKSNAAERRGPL
DRB1*0301, sequence (P01903 26-254 limits assumed, other chains not shown): as above
DRB1*1101, sequence (P01903 26-254 limits assumed, other chains not shown): as above

| Compound | IC50 [1] | IC50 [2] | IC50 [3] | IC50 [4] | IC50 ([5]; Binding affinity DRB5 *0101) | IC50 [6] | IC50 [7] | IC50 ([8]; Binding affinity DRB1 *1101) | IC50 [9] | IC50 [10] | IC50 [11] | IC50 [12] | IC50 [13] | IC50 [14] | IC50 [5] | IC50 [8] | IC50 ([8]; […]) |
| --- | --- | --- | --- | --- | --- | --- | --- | --- | --- | --- | --- | --- | --- | --- | --- | --- | --- |
| AATYNFAVLKLMGRGTKF [Peptide F025.08] | > 20 µM | > 20 µM | – | – | – | – | – | – | – | – | – | – | – | – | – | – | – |
| SADDLRAFQQLFLNT [Peptide 1543.07] | > 20 µM | – | 0.305 µM | 3.13 µM | > 20 µM | 0.27 µM | 7 µM | 3.59 µM | 0.124 µM | 0.411 µM | 0.559 µM | 0.295 µM | – | – | – | – | – |
| RNTFLDVVTIPNSVQ [Peptide 1601.39] | 12 µM | 6.86 µM | – | – | > 20 µM | – | 0.776 µM | 0.371 µM | 0.27 µM | 0.326 µM | 5.87 µM | 0.555 µM | 17 µM | – | – | – | – |
| EYILDLHPEPTDLFC [Peptide 1543.51] | 0.083 µM | – | 2.6 µM | 4.75 µM | > 20 µM | 0.0082 µM | 16.3 µM | 19.5 µM | > 20 µM | 1.14 µM | > 20 µM | 0.189 µM | > 20 µM | – | – | – | – |
| CSCC[C@H](NC(=O)CNC(=O)CNC(=O)[C@H](CCCNC(=N)N)NC(=O)[C@@H](NC(=O)[C@H](CCC(N)=O)NC(=O)[C@H](C)NC(=O)[C@@H](NC(=O)[C@@H](NC(=O)[C@H](CC(C)C)NC(=O)[C@H](Cc1c[nH]cn1)NC(=O)[C@H](Cc1ccc(O)cc1)NC(=O)[C@@H](N)CCCCN)[C@@H](C)O)C(C)C)C(C)C)C(=O)N[C@H](C(=O)N[C@@H](Cc1ccccc1)C(=O)O)C(C)C [Peptide 68.0120] | > 20 µM | > 20 µM | – | – | – | – | – | – | – | – | – | – | – | – | – | – | – |
| VVTIPNSVQISVGYM [Peptide 1601.41] | > 20 µM | > 20 µM | – | – | > 20 µM | – | – | 4.22 µM | 0.071 µM | – | – | – | 3.44 µM | 0.835 µM | – | – | – |
| CC[C@H](C)[C@H](NC(=O)[C@H](C)NC(=O)[C@@H](NC(=O)[C@@H](NC(=O)[C@H](CC(N)=O)NC(=O)[C@H](CC(C)C)NC(=O)[C@H](Cc1ccccc1)NC(=O)[C@H](CCCCN)NC(=O)[C@@H](NC(=O)[C@H](CCCNC(=N)N)NC(=O)[C@H](CCC(N)=O)NC(=O)[C@H](CCCCN)NC(=O)[C@@H](N)CCC(=O)O)[C@@H](C)O)[C@@H](C)O)C(C)C)C(=O)N1CCC[C@H]1C(=O)N[C@@H](CC(=O)O)C(=O)O [Peptide 1601.19] | > 20 µM | 11.8 µM | – | – | – | 6.45 µM | > 20 µM | – | 0.123 µM | – | 0.284 µM | 0.061 µM | > 20 µM | 4.5 µM | > 20 µM | > 20 µM | – |
| CSCC[C@H](NC(=O)[C@H](CS)NC(=O)[C@H](CC(N)=O)NC(=O)[C@H](CC(=O)O)NC(=O)[C@H](CCCCN)NC(=O)[C@H](CC(N)=O)NC(=O)CN)C(=O)N[C@H](C(=O)N[C@@H](Cc1ccc(O)cc1)C(=O)N[C@H](C(=O)N[C@@H](C)C(=O)N[C@@H](Cc1c[nH]c2ccccc12)C(=O)N[C@@H](CC(=O)O)C(=O)N[C@@H](CO)C(=O)N[C@H](C(=O)O)C(C)C)C(C)C)[C@@H](C)O [Peptide 1601.09] | > 20 µM | 8.83 µM | – | > 20 µM | > 20 µM | 0.041 µM | 11.5 µM | > 20 µM | 4.39 µM | – | > 20 µM | 2.23 µM | 0.461 µM | 2.26 µM | – | – | – |
| STWHWTGCNKNTGIL [Peptide 1601.38] | > 20 µM | > 20 µM | – | 0.487 µM | 16.5 µM | > 20 µM | 11.7 µM | 0.662 µM | – | – | > 20 µM | > 20 µM | > 20 µM | > 20 µM | – | – | – |
| VHEGIRTYFVQFKDD [Peptide 1601.05] | 9.92 µM | 9.33 µM | – | – | > 20 µM | 1.8 µM | 12.2 µM | > 20 µM | 5.73 µM | – | 5.86 µM | 9.28 µM | 0.038 µM | – | – | – | – |
| CC[C@H](C)[C@H](NC(=O)[C@@H](N)CCCCN)C(=O)N[C@@H](Cc1ccccc1)C(=O)NCC(=O)N[C@@H](CO)C(=O)N[C@@H](CC(C)C)C(=O)N[C@@H](C)C(=O)N[C@@H](Cc1ccccc1)C(=O)N[C@@H](CC(C)C)C(=O)N1CCC[C@H]1C(=O)N[C@@H](CCC(=O)O)C(=O)N[C@@H](CO)C(=O)N[C@@H](Cc1ccccc1)C(=O)N[C@@H](CC(=O)O)C(=O)NCC(=O)N[C@@H](CC(=O)O)C(=O)N1CCC[C@H]1C(=O)N[C@@H](C)C(=O)O [Peptide 1533.07] | > 20 µM | > 20 µM | – | – | – | – | > 20 µM | > 20 µM | – | – | – | – | – | – | – | – | – |
| CC[C@H](C)[C@H](NC(=O)[C@@H](NC(=O)[C@@H]1CCCN1C(=O)[C@@H](NC(=O)[C@@H](NC(=O)[C@H](CC(N)=O)NC(=O)CNC(=O)[C@H](CO)NC(=O)[C@H](CS)NC(=O)[C@H](CC(C)C)NC(=O)[C@H](CCCCN)NC(=O)[C@H](CCCNC(=N)N)NC(=O)[C@H](CCCNC(=N)N)NC(=O)[C@@H](N)CCCCN)[C@@H](C)O)[C@@H](C)O)[C@@H](C)CC)C(=O)N[C@@H](Cc1c[nH]cn1)C(=O)O [Peptide 1601.16] | > 20 µM | 5.94 µM | – | 0.0076 µM | 4.98 µM | > 20 µM | 4.74 µM | > 20 µM | – | – | 0.061 µM | – | 9.33 µM | 0.311 µM | – | – | – |
| QKGRGYRGQHQAHSLERVCH [Peptide F025.05] | > 20 µM | > 20 µM | – | – | – | – | – | – | – | – | – | – | > 20 µM | – | – | – | > 20 µM |
| CC[C@H](C)[C@H](N)C(=O)N[C@@H](CC(C)C)C(=O)N[C@@H](CC(C)C)C(=O)N[C@@H](Cc1c[nH]c2ccccc12)C(=O)N[C@@H](CCC(N)=O)C(=O)N1CCC[C@H]1C(=O)N[C@H](C(=O)N1CCC[C@H]1C(=O)N[C@H](C(=O)N[C@@H](Cc1c[nH]cn1)C(=O)N[C@H](C(=O)N[C@H](C(=O)N1CCC[C@H]1C(=O)N[C@@H](CC(C)C)C(=O)N[C@@H](CO)C(=O)O)C(C)C)[C@@H](C)O)C(C)C)[C@@H](C)CC [Peptide 68.0038] | > 20 µM | > 20 µM | – | – | > 20 µM | – | – | – | – | – | – | – | – | – | – | – | – |
| CC[C@H](C)[C@H](NC(=O)CNC(=O)[C@H](Cc1ccc(O)cc1)NC(=O)[C@H](CC(C)C)NC(=O)[C@H](CO)NC(=O)[C@H](CC(C)C)NC(=O)[C@H](CC(C)C)NC(=O)[C@H](CO)NC(=O)[C@H](CC(C)C)NC(=O)[C@H](CCC(=O)O)NC(=O)[C@H](CO)NC(=O)[C@@H](N)CC(C)C)C(=O)N[C@@H](Cc1c[nH]cn1)C(=O)N[C@@H](CCCCN)C(=O)N[C@@H](CCC(N)=O)C(=O)O [Peptide 68.0044] | > 20 µM | > 20 µM | – | – | – | – | – | – | > 20 µM | – | – | – | – | – | – | – | – |
| QIQVFETLEET [Peptide 1385.01] | > 20 µM | > 20 µM | – | > 20 µM | – | > 20 µM | – | – | – | – | – | > 20 µM | – | > 20 µM | – | – | – |
| GRVNTHVHNPLLCSS [Peptide 1601.34] | > 20 µM | 9.95 µM | – | 0.865 µM | > 20 µM | 5.98 µM | 2.69 µM | > 20 µM | 6.02 µM | – | 3.35 µM | 0.873 µM | – | > 20 µM | – | – | – |
